{"source": "patent US20060276523A1", "about": "(priority 2003, published 2006)", "key": {"[1]": {"system": "isolated rabbit thoracic aorta preparations", "experiment": "Studies on vascular tone: vasorelaxation of noradrenaline-precontracted aortic rings", "assay_type": "cell-based", "conditions": "rabbit aortic rings precontracted with noradrenaline 1 μM; for IC50: functional endothelium, read-out: IC50 (μM) ± sem (vasorelaxation)", "procedure": "The ability of the nitroderivatives of ARB to induce vasorelaxation in comparison to native ARB, was tested in vitro in isolated rabbit thoracic aorta preparations (Wanstall J. C. et al., Br. J. Pharmacol., 134:463-472, 2001). Male New Zealand rabbits were anaesthetized with thiopental-Na (50 mg/kg, iv), sacrificed by exsanguinations and then the thorax was opened and the aorta dissected. Aortic ring preparations (4 mm in length) were set up in physiological salt solution (PSS) at 37° C. in small organ chambers (5 ml). The composition of PSS was (mM): NaCl 130, NaHCO3 14.9, KH2PO4 1.2, MgSO4 1.2, HEPES 10, CaCl2, ascorbic acid […] and glucose 1.1 (95% O2/5% CO2; pH 7.4). Each ring was mounted under 2 g passive tension. Isometric tension was recorded with a Grass transducer (Grass FT03) attached to a BIOPAC MP150 System. Preparations were allowed to equilibrate for 1 h, and then contracted submaximally with noradrenaline (NA, 1 μM) and, when the contraction was stable, acetylcholine (ACh, 10 μM) was added. A relaxant response to ACh indicated the presence of a functional endothelium. […] When a stable precontraction was reached, a cumulative concentration-response curve to either of the vasorelaxant agents was obtained in the presence of a functional endothelium. Each arterial ring was exposed to only one combination of inhibitor and vasorelaxant. Moreover, the effect of the soluble guanylyl cyclase inhibitor ODQ (1-H-(1,2,4)-oxadiazol(4,3-a)quinoxalin-1-one) on vasorelaxation elicited by the compounds was examined preincubating the aortic rings with ODQ (10 μM) for 20 min.\nResponses to relaxing agents are expressed as a percentage of residual contraction and plotted against concentration of test compound. IC50 values (where IC50 is the concentration producing 50% of the maximum relaxation to the test compound) were interpolated from these plots.\nDuring the experimental period, the plateau obtained with NA was stable without significant spontaneous loss of contraction in the aortic rings."}, "human platelets": {"system": "human platelets", "experiment": "Antiplatelet activity: U46619-induced platelet aggregation in platelet rich plasma (Born method)", "assay_type": "cell-based", "conditions": "2 min, human PRP, aggregating agent U46619, incubation 2 min at 37° C., read-out: Platelet aggregation (PRP) (incubation time: 2 min) IC50", "procedure": "Aggregating agent used was U46619, a TxA2 analog, based on the evidence that this agonist is sensitive to the effects of nitric oxide. Compounds were incubated at 37° C. for 2 min before adding the aggregating agent. Aggregation was followed for 5 min and the maximal amplitude (cm) was measured. DMSO (0.05% final concentration) was used as vehicle. Compounds were tested at concentrations ranging from 10 to 100 μM."}, "RAW 264.7 macrophages": {"system": "RAW 264.7 macrophages", "experiment": "Inhibition of LPS-induced nitrite accumulation (Griess reaction)", "assay_type": "cell-based", "conditions": "for Nitrite (% vs vehicle): 25 μM, LPS 1 μg/ml for 16 hrs, RAW 264.7", "procedure": "The experiments were performed using RAW 264.7 monocyte macrophage cell line. Cells were stimulated in the presence of lipopolysaccharide (LPS) (1 μg/ml) for 16 hrs. At the end of the incubation, the culture media were collected and analyzed for nitrite content using a standard Griess reaction.\nThe results reported in Table 2 are expressed as % of nitrite content for each treatment vs. LPS-treated samples."}, "[2]": {"system": "spontaneously hypertensive rats (SHRs)", "experiment": "Antihypertensive activity in conscious spontaneously hypertensive rats (telemetry)", "assay_type": "in vivo", "conditions": "SHR; for Systolic blood pressure (mmHg), 30 min: 30 min after dosing; for Systolic blood pressure (mmHg), 30 min / Systolic blood pressure (mmHg), 12 hrs / Systolic blood pressure (mmHg), 24 hrs: losartan 10 mg/kg po, EX. 2 12 mg/kg po (equimolar); for Systolic blood pressure (mmHg), 12 hrs: 12 hrs after dosing; for Systolic blood pressure (mmHg), 24 hrs: 24 hrs after dosing; for Systolic blood pressure (mmHg), Baseline: groups losartan 10 mg/kg po, EX. 2 12 mg/kg po", "excerpt": "Systolic blood pressure (SBP) and heart rate were monitored by telemetry at different time points after dosing."}}, "note": "Read-outs that look alike come from different tables or passages of the source.", "data": [{"smiles": "CCCCc1nc(Cl)c(COC(=O)c2ccc(CO[N+](=O)[O-])cc2)n1Cc1ccc(-c2ccccc2-c2nn[nH]n2)cc1", "note": "[EX. 1, 2-butyl-4-chloro-1-[[2′-(1H-tetrazol-5-yl)[1,1′-biphenyl]-4-yl]methyl]-1H-imidazole-5-methanol 4-(nitrooxymethyl) benzoic acid ester]", "values": [{"measurement": "IC50", "setting": "[1]; Oryctolagus cuniculus", "result": "33 ± 12", "unit": "µM"}, {"measurement": "IC50", "setting": "human platelets", "result": 5, "unit": "µM"}]}, {"smiles": "CCCCc1nc(Cl)c(COC(=O)c2cccc(CO[N+](=O)[O-])c2)n1Cc1ccc(-c2ccccc2-c2nn[nH]n2)cc1", "note": "[EX. 4, 2-butyl-4-chloro-1-[[2′-(1H-tetrazol-5-yl)[1,1′-biphenyl]-4-yl]methyl]-1H-imidazole-5-methanol 3-(nitrooxymethyl) benzoic acid ester]", "values": [{"measurement": "IC50", "setting": "[1]; Oryctolagus cuniculus", "result": "54 ± 16", "unit": "µM"}, {"measurement": "Nitrite (% vs vehicle)", "setting": "RAW 264.7 macrophages", "result": "61 ± 3", "unit": "% vs vehicle"}, {"measurement": "inhibition of accumulation of nitrites induced by LPS (in words)", "setting": "RAW 264.7 macrophages; RAW 264.7, LPS", "result": "able to inhibit the accumulation of nitrites induced by LPS"}]}, {"smiles": "CCCCc1nc(Cl)c(COC(=O)CCCO[N+](=O)[O-])n1Cc1ccc(-c2ccccc2-c2nn[nH]n2)cc1", "note": "[EX. 2, 2-butyl-4-chloro-1-[[2′-(1H-tetrazol-5-yl)[1,1′-biphenyl]-4-yl]methyl]-1H-imidazole-5-methanol 4-nitrooxybutanoic acid ester]", "values": [{"measurement": "IC50", "setting": "[1]; Oryctolagus cuniculus", "result": "15 ± 3", "unit": "µM"}, {"measurement": "IC50", "setting": "human platelets", "result": 11, "unit": "µM"}, {"measurement": "Systolic blood pressure (mmHg), 30 min", "setting": "[2]; daily oral dose for 3 days", "result": 115, "unit": "mmHg"}, {"measurement": "Systolic blood pressure (mmHg), 12 hrs", "setting": "[2]; daily oral dose for 3 days", "result": 126, "unit": "mmHg"}, {"measurement": "Systolic blood pressure (mmHg), 24 hrs", "setting": "[2]; daily oral dose for 3 days", "result": 128, "unit": "mmHg"}, {"measurement": "Systolic blood pressure (mmHg), Baseline", "setting": "[2]", "result": 143, "unit": "mmHg"}, {"measurement": "reduction in blood pressure levels over the treatment period (in words)", "setting": "[2]; daily oral dose for 3 days", "result": "able to induce a clear reduction in blood pressure levels"}]}, {"smiles": "CCCCc1nc(Cl)c(CO)n1Cc1ccc(-c2ccccc2-c2nn[nH]n2)cc1", "note": "[Losartan, reference compound]", "values": [{"measurement": "IC50", "setting": "[1]; Oryctolagus cuniculus", "result": "> 100", "unit": "µM"}, {"measurement": "relaxation of aortic rings (in words)", "setting": "[1]", "result": "did not produce relaxation at any of the concentration tested"}, {"measurement": "Nitrite (% vs vehicle)", "setting": "RAW 264.7 macrophages", "result": "99 ± 9", "unit": "% vs vehicle"}, {"measurement": "Systolic blood pressure (mmHg), 30 min", "setting": "[2]; daily oral dose for 3 days", "result": 133, "unit": "mmHg"}, {"measurement": "Systolic blood pressure (mmHg), 12 hrs", "setting": "[2]; daily oral dose for 3 days", "result": 135, "unit": "mmHg"}, {"measurement": "Systolic blood pressure (mmHg), 24 hrs", "setting": "[2]; daily oral dose for 3 days", "result": 136, "unit": "mmHg"}, {"measurement": "Systolic blood pressure (mmHg), Baseline", "setting": "[2]", "result": 143, "unit": "mmHg"}]}, {"smiles": "CCCCc1nc(Cl)c(COC(=O)CCCCCO[N+](=O)[O-])n1Cc1ccc(-c2ccccc2-c2nnn[nH]2)cc1", "note": "[EX. 5, 2-butyl-4-chloro-1-[[2′-(H-tetrazol-5-yl)[1,1′-biphenyl]-4-yl]methyl]-1H-imidazole-5-methanol 6-nitrooxyhexanoic acid ester]", "values": [{"measurement": "IC50", "setting": "[1]", "result": "18 ± 6", "unit": "µM"}]}]}
